Laboratory results: patent US12448358B2, “Inhibitors of protein arginine deiminase 1 and methods of preparation and use thereof” (University of Massachusetts, priority 2019, dated 2025)
Read-outs that look alike come from different tables or passages of the source.

Key:
Format in all cases: biochemical
[1] = molecular target: T1, PAD2 (Homo sapiens, UniProt Q9Y2J8); assay: Inactivation kinetics of PAD2 (COLDER citrulline assay); conditions: for Fold PAD selectivity: bracketed value under kinact/KI; for kinact/KI: marks: * nonlinear fit of kobs versus [I], ‡ linear fit, † single kobs; for Ki: concentration of inhibitor that affords half-maximal inactivation
T1 construct: made in house
Experimental: (§1) Inactivation kinetics. […] After 15 min, reactions were quenched with liquid nitrogen and the production of citrulline was quantified using the COLDER assay. (Kearney, et al. Biochemistry 2005, 44, 10570-10582; Knipp, et al. Anal. Biochem. 2000, 286, 257-264.) The time-dependence of PAD inhibition was fit to the following equation 1, […] (1), using Grafit, version 5.0.11, where v is velocity, ν0 is initial velocity, k (or kobs is the pseudo-first-order rate constant of inactivation, and t is time. Upon reaching saturation, the concentration dependence of kobs was fit to equation 2, kobs=kinact[I]/(KI+[I]), (2), using Grafit, version 5.0.11, where kinact is the maximal rate of inactivation, KI is the concentration of inhibitor that affords half-maximal inactivation, and [I] is the concentration of inhibitor. When kobs with [I] varied linearly, kinact/KI was determined from the slope of the line. All the experiments were performed at least in duplicate.

[2] = molecular target: T2, PAD3 (Homo sapiens, UniProt Q9ULW8); assay: Inactivation kinetics of PAD3 (COLDER citrulline assay); conditions: for Fold PAD selectivity: bracketed value under kinact/KI; for kinact/KI: marks: * nonlinear fit of kobs versus [I], ‡ linear fit, † single kobs
T2 construct: made in house
T2 sequence (Q9ULW8 1-664): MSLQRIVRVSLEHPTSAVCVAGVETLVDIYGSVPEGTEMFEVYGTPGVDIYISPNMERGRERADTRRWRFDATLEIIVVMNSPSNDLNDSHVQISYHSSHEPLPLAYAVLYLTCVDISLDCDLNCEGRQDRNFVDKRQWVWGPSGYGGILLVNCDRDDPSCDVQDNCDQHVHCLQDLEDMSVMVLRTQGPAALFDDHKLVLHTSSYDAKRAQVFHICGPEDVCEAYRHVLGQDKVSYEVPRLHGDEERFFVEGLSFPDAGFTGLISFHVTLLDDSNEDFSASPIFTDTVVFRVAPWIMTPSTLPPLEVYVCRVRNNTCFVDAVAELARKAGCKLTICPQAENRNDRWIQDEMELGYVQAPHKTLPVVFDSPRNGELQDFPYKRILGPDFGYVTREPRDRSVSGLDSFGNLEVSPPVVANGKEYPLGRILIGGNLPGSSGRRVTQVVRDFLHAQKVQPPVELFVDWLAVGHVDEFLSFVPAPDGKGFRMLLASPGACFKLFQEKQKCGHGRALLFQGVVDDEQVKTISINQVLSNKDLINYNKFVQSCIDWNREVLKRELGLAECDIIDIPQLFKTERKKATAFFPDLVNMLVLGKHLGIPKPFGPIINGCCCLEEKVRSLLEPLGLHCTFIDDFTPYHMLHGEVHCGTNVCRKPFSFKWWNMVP
Experimental: as §1

[3] = molecular target: T3, PAD1 (Homo sapiens, UniProt Q9ULC6); assay: Inactivation kinetics of PAD1 (COLDER citrulline assay); conditions: for Ki / kinact/KI / kinact / fold less potent than 1 (drop in potency for PAD1): PAD1; for Ki: concentration of inhibitor that affords half-maximal inactivation; for kinact/KI: marks: * nonlinear fit of kobs versus [I], ‡ linear fit, † single kobs; for fold less potent than 1 (drop in potency for PAD1): relative to parent compound 1; for Fold PAD selectivity: PAD1 over the other PADs, bracketed value under kinact/KI
T3 construct: made in house
T3 sequence (Q9ULC6 1-663): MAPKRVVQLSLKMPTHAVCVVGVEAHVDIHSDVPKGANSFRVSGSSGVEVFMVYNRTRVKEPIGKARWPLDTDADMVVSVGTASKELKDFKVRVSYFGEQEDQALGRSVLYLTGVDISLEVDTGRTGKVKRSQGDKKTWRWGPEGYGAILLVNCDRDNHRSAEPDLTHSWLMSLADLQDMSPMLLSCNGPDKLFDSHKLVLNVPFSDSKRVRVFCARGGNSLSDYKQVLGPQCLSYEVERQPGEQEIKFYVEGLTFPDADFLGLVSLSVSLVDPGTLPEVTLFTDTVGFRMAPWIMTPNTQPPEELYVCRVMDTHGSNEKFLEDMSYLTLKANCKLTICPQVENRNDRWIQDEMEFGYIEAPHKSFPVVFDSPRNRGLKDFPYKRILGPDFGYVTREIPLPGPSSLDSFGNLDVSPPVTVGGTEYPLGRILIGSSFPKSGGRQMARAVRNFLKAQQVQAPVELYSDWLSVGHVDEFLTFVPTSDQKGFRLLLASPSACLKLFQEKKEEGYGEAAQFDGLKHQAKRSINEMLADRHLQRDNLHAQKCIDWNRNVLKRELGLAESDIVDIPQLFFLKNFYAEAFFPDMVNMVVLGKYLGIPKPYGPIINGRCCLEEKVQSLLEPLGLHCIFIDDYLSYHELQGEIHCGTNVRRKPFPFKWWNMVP
Experimental: as §1

[4] = molecular target: T4, PAD4 (Homo sapiens, UniProt Q9UM07); assay: Inactivation kinetics of PAD4 (COLDER citrulline assay); conditions: for Fold PAD selectivity: bracketed value under kinact/KI; for kinact/KI: marks: * nonlinear fit of kobs versus [I], ‡ linear fit, † single kobs; for Ki: concentration of inhibitor that affords half-maximal inactivation
T4 construct: made in house
Experimental: as §1

[5] = read-out: kinact/KI (converted)

T1 sequence (Q9Y2J8 whole entry): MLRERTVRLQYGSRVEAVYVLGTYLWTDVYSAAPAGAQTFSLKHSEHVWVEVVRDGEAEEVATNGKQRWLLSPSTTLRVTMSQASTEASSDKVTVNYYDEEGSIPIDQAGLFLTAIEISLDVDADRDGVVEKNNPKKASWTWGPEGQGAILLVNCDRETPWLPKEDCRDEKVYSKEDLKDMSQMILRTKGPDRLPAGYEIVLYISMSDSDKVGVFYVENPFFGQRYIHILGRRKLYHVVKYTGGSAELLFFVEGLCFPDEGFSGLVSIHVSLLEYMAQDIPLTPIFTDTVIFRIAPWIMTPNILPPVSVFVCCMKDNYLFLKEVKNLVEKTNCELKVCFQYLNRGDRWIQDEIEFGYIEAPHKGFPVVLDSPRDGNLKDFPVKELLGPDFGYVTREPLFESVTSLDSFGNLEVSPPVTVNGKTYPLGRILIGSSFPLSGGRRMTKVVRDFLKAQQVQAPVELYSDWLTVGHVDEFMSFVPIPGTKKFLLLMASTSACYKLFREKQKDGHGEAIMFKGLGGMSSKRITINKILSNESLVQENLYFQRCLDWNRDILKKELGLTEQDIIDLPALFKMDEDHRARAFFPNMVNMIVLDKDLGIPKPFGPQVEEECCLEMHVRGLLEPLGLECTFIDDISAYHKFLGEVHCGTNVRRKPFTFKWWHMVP
T4 sequence (Q9UM07 whole entry): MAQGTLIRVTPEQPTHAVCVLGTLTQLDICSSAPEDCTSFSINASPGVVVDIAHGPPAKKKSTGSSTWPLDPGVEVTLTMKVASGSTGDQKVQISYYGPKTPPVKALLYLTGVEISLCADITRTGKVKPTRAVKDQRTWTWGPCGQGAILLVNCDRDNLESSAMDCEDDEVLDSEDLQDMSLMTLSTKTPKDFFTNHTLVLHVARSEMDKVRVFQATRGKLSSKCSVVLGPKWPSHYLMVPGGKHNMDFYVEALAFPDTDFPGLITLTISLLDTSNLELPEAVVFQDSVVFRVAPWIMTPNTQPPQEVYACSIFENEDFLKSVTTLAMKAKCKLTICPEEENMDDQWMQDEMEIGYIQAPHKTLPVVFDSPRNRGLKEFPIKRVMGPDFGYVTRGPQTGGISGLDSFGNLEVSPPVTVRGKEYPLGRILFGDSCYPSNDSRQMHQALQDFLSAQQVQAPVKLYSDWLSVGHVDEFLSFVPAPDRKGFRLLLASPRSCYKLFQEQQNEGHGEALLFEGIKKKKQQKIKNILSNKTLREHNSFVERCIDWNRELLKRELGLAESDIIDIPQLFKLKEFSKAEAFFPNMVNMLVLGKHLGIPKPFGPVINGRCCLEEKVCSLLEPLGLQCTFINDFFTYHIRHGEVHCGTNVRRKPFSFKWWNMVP

Row | Structure (SMILES) | Fold PAD selectivity [1] | kinact/KI [1, 5] [M⁻¹ s⁻¹] | Fold PAD selectivity [2] | kinact/KI [2, 5] [M⁻¹ s⁻¹] | Ki [3] [µM] | kinact/KI [3, 5] [M⁻¹ s⁻¹] | Fold PAD selectivity [3] | Fold PAD selectivity [4] | kinact/KI [4, 5] [M⁻¹ s⁻¹] | kinact/KI [1] | kinact/KI [2] | kinact/KI [3] | kinact/KI [4] | Ki [1] [µM] | other results
1 | N=C(CF)NCCC[C@H](NC(=O)c1cc(Br)cc(Br)c1O)c1nc2ccccc2[nH]1 [Compound 11] | [1] fold | 2.17 | [3] fold | 7 | 54.8 | 54.7 | 25 fold | [2] fold | 4.17 | – | – | – | – | – | kinact ([3]; read-out: kinact (converted)): 0.003 s⁻¹; fold less potent than 1 (drop in potency for PAD1) [3]: 3 fold
2 | N=C(CCl)NCCC[C@H](NC(=O)c1cccc(I)c1O)c1nc2ccccc2[nH]1 [Compound 18] | [2] fold | – | [1] fold | – | – | – | [4] fold | [3] fold | – | 2210 ± 270^† M^−1min^−1 | 1170 ± 40^† M^−1min^−1 | 4100 ± 300^‡ M^−1min^−1 | 3160 ± 550^† M^−1min^−1 | – | –
3 | N=C(CF)NCCC[C@H](NC(=O)c1cc(I)ccc1O)c1nc2ccccc2[nH]1 [Compound 15] | [1] fold | 2 | [4] fold | 8.33 | 46.7 | 25 | 13 fold | [5] fold | 10.7 | – | – | – | – | – | kinact ([3]; read-out: kinact (converted)): 0.00117 s⁻¹; fold less potent than 1 (drop in potency for PAD1) [3]: 7 fold
4 | N=C(CCl)NCCC[C@H](NC(=O)c1ccccc1O)c1nc2ccccc2[nH]1 [Compound 8] | [5] fold | 46.7 | [18] fold | 176 | – | 10 | [1] fold | [68] fold | 684 | – | – | – | – | – | Ki [4]: 25.1 µM; kinact ([4]; read-out: kinact (converted)): 0.0172 s⁻¹
5 | N=C(CCl)NCCC[C@H](NC(=O)c1cc(I)cc(I)c1O)c1nc2ccccc2[nH]1 [Compound 2] | – | – | – | – | – | – | – | – | – | – | – | – | – | 93.7 | –
6 | N=C(CCl)NCCC[C@H](NC(=O)c1cc(I)ccc1O)c1nc2ccccc2[nH]1 [Compound 16] | [1] fold | – | [3] fold | – | – | – | [2] fold | [2] fold | – | 1700 ± 70^‡ M^−1min^−1 | 5000 ± 280^‡ M^−1min^−1 | 3900 ± 100^‡ M^−1min^−1 | 3600 ± 70^‡ M^−1min^−1 | – | –
7 | CC(C)c1cc(C(=O)N[C@@H](CCCNC(=N)CCl)c2nc3ccccc3[nH]2)c(O)c(C(C)C)c1 [Compound 10] | – | – | – | – | – | – | – | – | – | – | – | – | – | 131 | –
8 | N=C(CF)NCCC[C@H](NC(=O)c1cc(I)cc(I)c1)c1nc2ccccc2[nH]1 [Compound 5] | [1] fold | 12.8 | [3] fold | 41.2 | 30.2 | 121 | [9] fold | [1] fold | 17.8 | – | – | – | – | – | kinact ([3]; read-out: kinact (converted)): 0.00367 s⁻¹
9 | N=C(CCl)NCCC[C@H](NC(=O)c1cc(Cl)cc(Cl)c1O)c1nc2ccccc2[nH]1 [Compound 14] | [1] fold | – | [2] fold | – | – | – | [2] fold | [1] fold | – | 3400 ± 70^‡ M^−1min^−1 | 5500 ± 300^‡ M^−1min^−1 | 5300 ± 210^‡ M^−1min^−1 | 2600 ± 70^‡ M^−1min^−1 | – | –
10 | CC(C)c1cc(C(=O)N[C@@H](CCCNC(=N)CF)c2nc3ccccc3[nH]2)c(O)c(C(C)C)c1 [Compound 9] | [2] fold | – | [3] fold | – | – | – | [1] fold | [1] fold | – | 400 ± 30^† M^−1min^−1 | 580 ± 120^† M^−1min^−1 | 190 ± 20^† M^−1min^−1 | 240 ± 20^† M^−1min^−1 | – | –
11 | COc1c(I)cc(I)cc1C(=O)NC(CCCNC(=N)CF)c1nc2ccccc2[nH]1 (stereo not shown) [Compound 3] | [2] fold | 27.5 | [3] fold | 36 | 44.3 | 97.8 | [8] fold | [1] fold | 12.5 | – | – | – | – | – | kinact ([3]; read-out: kinact (converted)): 0.00433 s⁻¹
12 | COc1c(I)cc(I)cc1C(=O)N[C@@H](CCCNC(=N)CCl)c1nc2ccccc2[nH]1 [Compound 4] | – | – | – | – | – | – | – | – | – | – | – | – | – | 208 | –
13 | N=C(CF)NCCC[C@H](NC(=O)c1cccc(I)c1O)c1nc2ccccc2[nH]1 [Compound 17] | [1] fold | – | [2] fold | – | – | – | 3 fold | [2] fold | – | 110 ± 10^† M^−1min^−1 | 240 ± 30^† M^−1min^−1 | 300 ± 30^† M^−1min^−1 | 180 ± 20^† M^−1min^−1 | – | fold less potent than 1 (drop in potency for PAD1) [3]: 35 fold
14 | N=C(CCl)NCCC[C@H](NC(=O)c1cc(I)c(F)c(I)c1O)c1nc2ccccc2[nH]1 [Compound 20] | – | – | – | – | – | – | – | – | – | – | – | – | – | 17.5 | –
15 | N=C(CF)NCCC[C@H](NC(=O)c1cc(Cl)cc(Cl)c1O)c1nc2ccccc2[nH]1 [Compound 13] | [1] fold | 2.17 | [4] fold | 9.17 | 124 | 21.5 | 10 fold | [2] fold | 4.83 | – | – | – | – | – | kinact ([3]; read-out: kinact (converted)): 0.00267 s⁻¹; fold less potent than 1 (drop in potency for PAD1) [3]: 8 fold
16 | C#Cc1c(I)cc(C(=O)N[C@@H](CCCNC(=N)CCl)c2nc3ccccc3[nH]2)c(O)c1I [Compound 22] | [4] fold | – | [1] fold | – | 35.2 | – | – | [3] fold | – | 31230 ± 1440* M^−1min^−1 | 8200 ± 30* M^−1min^−1 | 72160 ± 10970* M^−1min^−1 | 25000 ± 1370* M^−1min^−1 | 25.3 | kinact [1]: 0.79 min⁻¹; kinact [2]: 0.8 min⁻¹; Ki ([2]; concentration of inhibitor that affords half-maximal inactivation): 97.6 µM; kinact [3]: 0.0423 s⁻¹; kinact [4]: 0.0128 s⁻¹; Ki [4]: 30.8 µM
17 | N=C(CCl)NCCC[C@H](NC(=O)c1cc(Br)cc(Br)c1O)c1nc2ccccc2[nH]1 [Compound 12] | – | – | – | – | – | – | – | – | – | – | – | – | – | 91.5 | –
